Reference: PubChem BioAssay (NCI)
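How tested: cells in 96-well plates exposed to compound for 48 hours at five concentrations. Definition used: TGI = concentration required for complete inhibition of growth.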

Key:
Assay in all cases: NCI tumour cell line growth inhibition, 48 h
[1] = system: BT-549 breast
[2] = system: MCF7 breast
[3] = system: CCRF-CEM leukemia
[4] = system: SK-OV-3 ovarian
[5] = system: MDA-MB-231 breast
[6] = system: OVCAR-8 ovarian
[7] = system: MDA-N
[8] = system: HOP-92 NSCLC
[9] = system: NCI-H23 lung
[10] = system: OVCAR-4 ovarian
[11] = system: 786-0 renal
[12] = system: NCI-H522 lung
[13] = system: NCI/ADR-RES ovarian
[14] = system: SF-295 CNS
[15] = system: CAKI-1 renal
[16] = system: MOLT-4 leukemia
[17] = system: MDA-MB-435
[18] = system: IGROV1 ovarian
[19] = system: HOP-62 NSCLC
[20] = system: HCT-116 colon
[21] = system: ACHN renal
[22] = system: SK-MEL-28 melanoma
[23] = system: UO-31 renal
[24] = system: T-47D breast
[25] = system: HT29 colon
[26] = system: UACC-62 melanoma
[27] = system: K-562 leukemia
[28] = system: SW-620 colon
[29] = system: SK-MEL-5 melanoma
[30] = system: KM12 colon
[31] = system: TK-10 renal
[32] = system: SR leukemia
[33] = system: SF-268 CNS
[34] = system: M14 melanoma
[35] = system: RXF 393 renal
[36] = system: U251 CNS
[37] = system: SNB-75 CNS
[38] = system: DU-145 prostate
[39] = system: OVCAR-5 ovarian
[40] = system: OVCAR-3 ovarian
[41] = system: A549 NSCLC
[42] = system: SN12C renal
[43] = system: HCT-15 colon
[44] = system: UACC-257 melanoma
[45] = system: MALME-3M melanoma
[46] = system: NCI-H226 lung
[47] = system: RPMI-8226 leukemia
[48] = system: SK-MEL-2 melanoma
[49] = system: PC-3 prostate
[50] = system: SF-539 CNS
[51] = system: COLO 205 colon
[52] = system: HCC-2998 colon
[53] = system: HS 578T breast
[54] = system: NCI-H460 lung
[55] = system: A498 renal

Measured: TGI

O=C1CC(=O)NC(=NN2C(=O)CSC2C(=O)c2ccco2)N1 (stereo not given)
> 100 µM: [1] | [2] | [3] | [4] | [5] | [6] | [7] | [8] | [9] | [10] | [11] | [12] | [13] | [14] | [15] | [16] | [17] | [18] | [19] | [20] | [21] | [22] | [23] | [24] | [25] | [26] | [27] | [28] | [29] | [30] | [31] | [32] | [33] | [34] | [35] | [36] | [37] | [38] | [39] | [40] | [41] | [42] | [43] | [44] | [45] | [46] | [47] | [48] | [49] | [50] | [51] | [52] | [53] | [54] | [55]
